Patent US12214012B2, “Combined preparations for the treatment of cancer” (IMMUTEP S.A.S., priority 2013, dated 2025)
Structures can show the parent of a compound that is named as a salt.

How the values were obtained:
[1] = test system: colorectal adenocarcinoma cell line CT26; test: Murine syngeneic skin tumour model, CT26 (Example 1); format: in vivo; settings: CT26 s.c. in BALB/c mice; IMP321 50 μg s.c. D11-D28; Topotecan 2.5 mg/kg i.p. D10, D13, D17; FIG. 1
Protocol: A murine syngeneic skin tumour model was established using the colorectal adenocarcinoma cell line CT26.
One quarter of the minimum tumorigenic dose (MTD) of tumour cells (0.5×10^5 cells) was implanted by subcutaneous (s.c.) injection in the right flank of four groups of BALB/c mice (5 weeks old) at Day 0. The mice were injected with phosphate buffered saline (PBS) (Group 1 mice), the LAG-3 derivative IMP321 (Group 2 mice), IMP321 and Topotecan (Group 3 mice), or Topotecan alone (Group 4 mice) according to the following schedule: • Group 1 (8 mice): negative control: PBS s.c. injection at D11, D14, D18, D21, D25 and D28; • Group 2 (7 mice): IMP321 s.c. injection (50 μg, 1.9 mg/ml) at D11, D14, D18, D21, D25 and D28; • Group 3 (8 mice): IMP321 s.c. injection (50 μg, 1.9 mg/ml) at D11, D14, D18, D21, D25 and D28, plus Topotecan i.p. injection (45 μg, 2.5 mg/kg) at D10, D13 and D17; • Group 4 (8 mice): Topotecan i.p. injection (45 μg, 2.5 mg/kg) at D10, D13 and D17.
Tumour growth was monitored twice a week by measuring two perpendicular tumour diameters using calipers. Tumour size means the cross-sectional area in mm^2.

[2] = test system: lymphoma cell line EL4; test: Murine syngeneic skin tumour model, EL4, carboplatin and oxaliplatin (Example 3); format: in vivo; settings: EL4 s.c. in C57Bl/6 mice; IMP321 50 μg s.c. D7-D25; Carboplatin 16 mg/kg i.p. D6, D10, D13, D17; Oxaliplatin 3 mg/kg i.p. D6, D10; FIG. 3A/3B
Protocol: (§1) A murine syngeneic skin tumour model was established using the lymphoma cell line EL4.
The minimum tumorigenic dose (MTD) of tumour cells (5×10^5 cells) was implanted by s.c. injection in the right flank of C57Bl/6 mice (5 weeks old) at Day 0. The mice were injected with phosphate buffered saline (PBS) (Group 1 mice), IMP321 (Group 2 mice), IMP321 and Carboplatin (Group 3 mice), Carboplatin alone (Group 4 mice), IMP321 and Oxaliplatin (Group 5 mice), or Oxaliplatin alone (Group 6 mice) according to the following schedule: • Group 1 (10 mice): negative control: PBS s.c. injection at D7, D11, D14, D18, D21 and D25; • Group 2 (10 mice): IMP321 s.c. injection (50 μg, 1.9 mg/m) at D7, D11, D14, D18, D21 and D25; • Group 3 (9 mice): IMP321 s.c. injection (50 μg, 1.9 mg/ml) at D7, D11, D14, D18, D21 and D25, plus Carboplatin i.p. injection (288 μg, 16 mg/kg) at D6, D10, D13 and D17; • Group 4 (10 mice): Carboplatin i.p. injection (288 μg, 16 mg/kg) at D6, D10, D13 and D17; • Group 5 (10 mice): IMP321 s.c. injection (50 μg, 1.9 mg/m) at D7, D11, D14, D18, D21 and D25, plus Oxaliplatin i.p. injection (54 μg, 3 mg/kg) at D6 and D10; • Group 6 (10 mice): Oxaliplatin i.p. injection (54 μg, 3 mg/kg) at D6 and D10.
Tumour growth was monitored twice a week by measuring two perpendicular tumor diameters using calipers. […] Tumour size means the cross-sectional area in mm^2.

[3] = test system: Mouse colon 38 (C38) tumor fragments; test: C38 colon adenocarcinoma tumor model (Example 4); settings: C38 fragments s.c. in C57BL/6 mice; oxaliplatin 5 mg/kg IV Q7Dx4; IMP321 20 μg SC Q7Dx4, day after oxaliplatin; FIG. 4A
[4] = test system: lymphoma cell line EL4; test: Murine syngeneic skin tumour model, EL4 (Example 2); format: in vivo; settings: EL4 s.c. in C57Bl/6 mice; IMP321 50 μg s.c. D7-D24; Carboplatin 16 mg/kg i.p. D6, D10, D13, D17; FIG. 2
Protocol: as §1
The minimum tumorigenic dose (MTD) of tumour cells (5×10^5 cells) was implanted by s.c. injection in the right flank of C57Bl/6 mice (5 weeks old) at Day 0. The mice were injected with phosphate buffered saline (PBS) (Group 1 mice), IMP321 (Group 2 mice), IMP321 and Carboplatin (Group 3 mice), or Carboplatin alone (Group 4 mice) according to the following schedule: • Group 1 (8 mice): negative control: PBS s.c. injection at D7, D11, D14, D19, D21 and D24; • Group 2 (8 mice): IMP321 s.c. injection (50 μg, 3.96 mg/ml) at D7, D11, D14, D19, D21 and D24; • Group 3 (8 mice): IMP321 s.c. injection (50 μg, 3.96 mg/m) at D7, D11, D14, D19, D21 and D24, plus Carboplatin i.p. injection (288 μg, 16 mg/kg) at D6, D10, D13 and D17; • Group 4 (8 mice): Carboplatin i.p. injection (288 μg, 16 mg/kg) at D6, D10, D13 and D17.
Tumour growth was monitored twice a week by measuring two perpendicular tumor diameters using calipers. Tumour size means the cross-sectional area in mm^2.

For `CC[C@@]1(O)C(=O)OCc2c1cc1n(c2=O)Cc2cc3c(CN(C)C)c(O)ccc3nc2-1` [topotecan, (S)-10-[(dimethylamino)methy]-4-ethyl-4,9-dihydroxy-1H-pyrano[3′,4′:6,7]indolizino[1,2-b] quinoline-3,14(4H,12H)-dione monohydrochloride], the “effect on tumour growth (tumour size, cross-sectional area)” value (from here on “effect on tumour growth”) [1] was “some effect on reducing tumor growth”.

In the case of `O=C1[O][Pt]2([NH][C@@H]3CCCC[C@H]3[NH]2)[O]C1=O` [Oxaliplatin, [(1R,2R)-cyclohexane-1,2-diamine](ethanedioato-O,O′)platinum(II)], the “effect on tumour growth” value [2] is reported as “had an effect” and the “effect on delaying tumor growth” value [3] is reported as “a slight effect”.

In the case of `[NH2][Pt]1([NH2])[O]C(=O)C2(CCC2)C(=O)[O]1` [carboplatin, cis-diammine(cyclobutane-1,1-dicarboxylate-O,O′)platinum(I)], the “effect on tumour growth” value [2] is reported as “some effect” and the “effect on tumour growth” value [4] is reported as “very little effect, if any”.

B1: IMP321: recombinant soluble human LAG-3Ig fusion protein, 200-kDa dimer: extracellular domain of hLAG-3 fused to human IgG1 Fc (protein)
chain: LQPGAEVPVVWAQEGAPAQLPCSPTIPLQDLSLLRRAGVTWQHQPDSGPPAAAPGHPLAPGPHPAAPSSWGPRPRRYTVLSVGPGGLRSGRLPLQPRVQLDERGRQRGDFSLWLRPARRADAGEYRAAVHLRDRALSCRLRLRLGQASMTASPPGSLRASDWVILNCSFSRPDRPASVHWFRNRGQGRVPVRESPHHHLAESFLFLPQVSPMDSGPWGCILTYRDGFNVSIMYNLTVLGLEPPTPLTVYAGAGSRVGLPCRLPAGVGTRSFLTAKWTPPGGGPDLLVTGDNGDFTLRLEDVSQAQAGTYTCHIHLQEQQLNATVTLAIITVTPKSFGSPGSLGKLLCEVTPVSGQERFVWSSLDTPSQRSFSGPWLEAQEAQLLSQPWQCQLYQGERLLGAAVYFTELSSPG
modifications: left off: small tags and cut ends; a dimerising Fc or GST
notes: recombinant soluble human LAG-3Ig fusion protein, 200-kDa dimer: extracellular domain of hLAG-3 fused to human IgG1 Fc
For B1, the “effect on tumour growth” value [1] was “no effect on tumour growth”, the “effect on tumour growth” value [2] was “little, if any effect” and the “effect on tumour growth” value [4] was “no effect on tumour growth”. For the same molecule, the “effect on delaying tumor growth” value [3] was “no effect on delaying tumor growth”.
